In US20080090278A1, “METHOD FOR ENHANCING STABILITY OF A COMPOSITION COMPRISING SOLUBLE GLUCOSE DEHYDROGENASE (GDH)” (TOYO BOSEKI KABUSHIKI KAISHA, priority 2006, published 2008):

What was measured:
[1] = tested on: recombinant FAD-GDH (rAO-FAD-GDH) derived from Aspergillus oryzae; test: Thermal stabilization effect of stabilizing agents on rAO-FAD-GDH in solution (Examples 3-6); assay type: physicochemical; details: for thermal stabilization effect on FAD-GDH (in words): 50° C. for 15 minutes, Example 3
Method: Enhancement of the thermal stability referred to herein means increasing of a residual ratio (%) of the GDH enzyme kept after giving the treatment with heat at a certain temperature for a certain time period to the composition comprising the GDH enzyme. In the present invention, the activity in the sample stored at 4° C. which is nearly completely kept is made 100%, this is compared with the activity in the GDH solution after giving the treatment with heat at a certain-temperature for a certain time period, and the residual ratio of the enzyme is calculated.
In the method for measuring the activity described in the method for measuring the GDH enzyme activity described later, an activity value (a) of GDH in the solution stored at 4° C. and an activity value (b) of GDH after giving the treatment with heat at a certain temperature for a certain time period were measured, a relative value[(b)/(a)×100] when the activity value (a) was made 100 was calculated. This relative value was made the residual ratio (%). Comparing the presence with the absence of the added compound, when the residual ratio was increased by the addition of the compound, it was determined that the thermal stability was enhanced.
In the present invention, the activity of FAD-dependent GDH is measured as follows.
The reaction-reagent is made by mixing 15.6 mL of the PIPES buffer, 0.2 mL of the DCPIP solution and 4 mL of the D-glucose solution.
(§1) The reaction reagent (3 mL) is preliminarily heated at 37° C. for 5 minutes. The GDH solution (0.1 mL) is added and gently mixed, subsequently the change of absorbance at 600 nm is recorded for 5 minutes using the spectrophotometer controlled to 37° C. using water as the control, and the change of absorbance per one minute (ΔODTEST) is calculated from the linear portion of the record. The solvent in which GDH will be dissolved in place of the blinded GDH solution is added to the reagent mixture, and the change of absorbance (ΔODBLANK) per one minute is measured. The GDH activity is calculated from these values according to the following formula. One unit (U) in the GDH activity is defined as the amount of the enzyme which reduces […] DCPIP for one minute in the presence of 200 mM D-glucose. Activity (U/mL)=[−(ΔODTEST−ΔODBLANK)×3.0×dilution scale]/(16.3×0.1×1.0) In the above formula, 3.0 represents a liquid amount (mL) of the reaction reagent+the enzyme solution, 16.3 represents a millimolar molecular absorbance coefficient (cm^2/μmol) in the condition for measuring this enzyme, 0.1 represents the liquid amount of the enzyme solution (mL) and 1.0 represents a light path length (cm) of the cell.
The study was performed in accordance with the method for measuring the FAD-GDH activity in Test Example 1 described above.
First, 50 mL of an enzyme solution obtained by dissolving the recombinant FAD-GDH (rAO-FAD-GDH)-derived from Aspergillus oryzae obtained in Example 1 at about 2 U/mL in an enzyme dilution solution (50 mM potassium phosphate buffer, pH 5.5, 0.1% Triton X-100) was prepared. Two tubes in which each stabilizing agent described in Table 1 had been added at each final concentration to 0.9 mL of this enzyme solution to make the total volume 1.0 mL were prepared.
(§2) In two tubes, one tube was stored at −4° C. and another tube was treated at 50° C. for 15 minutes. Then, the FAD-GDH activity in each tube was measured. The enzyme activity in the tube stored at 4° C. was made 100, and comparing with it, the activity value after being treated at 50° C. for 15 minutes was calculated as the residual activity ratio (%).
The method was in accordance with Example 3 described above.
The methods were in accordance with Example 3 above.

[2] = tested on: recombinant FAD-GDH (rAT-FAD-GDH) derived from Aspergillus terreus; test: Thermal stabilization effect of stabilizing agents on rAT-FAD-GDH in solution (Example 9); assay type: physicochemical; details: for Residual activity ratio (%) / GLD activity value (U/ml) 50° C., 15 min: Table 10, buffer 50 mM K-PB, stabilizer at each final concentration described in Table 1; for Residual activity ratio (%): 50° C., 15 min versus 4° C.; for thermal stabilization effect on FAD-GDH (in words): rAT-FAD-GDH, 50° C. for 15 minutes, Example 9
Method: as §1, with “D-glucose.” for “D-glucose. Activity (U/mL)=[−(ΔODTEST−ΔODBLANK)×3.0×dilution scale]/(16.3×0.1×1.0) In the above formula, 3.0 represents a liquid amount (mL) of the reaction reagent+the enzyme solution, 16.3 represents a millimolar molecular absorbance coefficient (cm^2/μmol) in the condition for measuring this enzyme, 0.1 represents the liquid amount of the enzyme solution (mL) and 1.0 represents a light path length (cm) of the cell.”
Two tubes in which each stabilizing agent described in Table 1 had been added at each final concentration to 0.9 mL of this enzyme solution to make the total volume 1.0 mL were prepared.
as §2, with “4°” for “−4°”

[3] = stabilizer final concentration 0.10%, rAO-FAD-GDH, pH 5.5
[4] = stabilizer final concentration 1%, rAO-FAD-GDH about 2 U/mL, 50 mM potassium phosphate buffer pH 5.5, 0.1% Triton X-100, 4° C. sample = 100

SMILES	Residual activity ratio (%) after treatment at 50° C., 15 min [1, 3]	Residual activity ratio (%) [2]	thermal stabilization effect on FAD-GDH (in words) ([1]; rAO-FAD-GDH)	thermal stabilization effect on FAD-GDH (in words) [2]	Residual activity ratio (%) after treatment at 50° C., 15 min [1, 4]	Residual activity ratio (%) after treatment at 50° C., 15 min ([1]; stabilizer final concentration 0.20%, rAO-FAD-GDH, pH 5.5)	GLD activity value (U/ml) 50° C., 15 min [2]
CO[C@H]1O[C@H](CO)[C@@H](O)[C@H](O)[C@H]1O [Methyl-a-D-glucoside]		9.4%	high effect	high effect	53.6%		0.267 U/ml
N.N.O=S(=O)(O)O [Ammonium sulfate]			high effect	high effect			
O=S(=O)([O-])[O-].[Na+].[Na+] [Sodium sulfate]			high effect	high effect			
N=C(N)NCCC[C@H](N)C(=O)O [L-arginine]		0.1%			1.1%		0.001 U/ml
O=C([O-])CC(O)(CC(=O)[O-])C(=O)[O-].[Na+].[Na+].[Na+] [Trisodium citrate]			high effect	high effect			
O=C(CO)[C@@H](O)[C@H](O)[C@H](O)CO [D-(−)-fructose]		2.7%	high effect	high effect	25.9%		0.075 U/ml
Cl.NCCCC[C@H](N)C(=O)O [L-lysine hydrochloride]		3.5%	high effect	high effect	23.4%		0.093 U/ml
OC[C@H]1O[C@@](CO)(O[C@H]2O[C@H](CO)[C@@H](O)[C@H](O)[C@H]2O)[C@@H](O)[C@@H]1O [Sucrose]		2.1%	high effect	high effect	44.1%		0.058 U/ml
O=C([O-])[C@H](O)[C@@H](O)[C@H](O)[C@H](O)CO.[Na+] [sodium gluconate]		3.9%	high effect	high effect	33.5%		0.111 U/ml
N[C@@H](CC(=O)[O-])C(=O)[O-].[Na+].[Na+] [Sodium L-aspartate]		3.7%	high effect	high effect	23.0%		0.102 U/ml

Second part, led by results:

Residual activity ratio (%) after treatment at 50° C., 15 min [1, 3]	Residual activity ratio (%) [2]	thermal stabilization effect on FAD-GDH (in words) ([1]; rAO-FAD-GDH)	thermal stabilization effect on FAD-GDH (in words) [2]	Residual activity ratio (%) after treatment at 50° C., 15 min [1, 4]	Residual activity ratio (%) after treatment at 50° C., 15 min ([1]; stabilizer final concentration 0.20%, rAO-FAD-GDH, pH 5.5)	SMILES	GLD activity value (U/ml) 50° C., 15 min [2]
23.6%	2.3%					N[C@H](Cc1ccccc1)C(=O)O [D-phenylalanine]	0.062 U/ml
		high effect	high effect			O=C(O)CCC(=O)O [Succinic acid]	
22.2%	1.4%					CC(C)C[C@H](N)C(=O)O [L-leucine]	0.038 U/ml
	0.1%			0.0%		O=C1O[C@H](CO)[C@@H](O)[C@H](O)[C@H]1O [Glucono-1,5-lactone]	0.003 U/ml
23.2%	5.6%	high effect	high effect			N[C@H](CCC(=O)O)C(=O)O [D-glutamic acid]	0.149 U/ml
24.3%	1.3%					N[C@@H](Cc1c[nH]c2ccccc12)C(=O)O [L-triptophan]	0.034 U/ml
	2.5%	high effect	high effect	23.0%		O=C[C@@H](O)[C@H](O)[C@H](O)CO [D-(−)-arabinose]	0.069 U/ml
	0.2%			0.0%		O=C(O)C1OC(O)C(O)C(O)C1O [D-a-galacturonic acid]	0.004 U/ml
	18.5%	high effect	high effect	68.5%		O=C[C@H](O)[C@@H](O)[C@H](O)CO [D-(+)-xylose]	0.516 U/ml
		high effect	high effect			O=C(O)CC(=O)O [Malonic acid]	
		high effect	high effect			N[C@@H](Cc1ccccc1)C(=O)O [phenylalanine]	
	3.2%	high effect	high effect	27.1%		C[C@H](N)C(=O)O [D-a-alanine]	0.09 U/ml
	36.9%	high effect	high effect	69.6%		O=CC[C@@H](O)[C@H](O)[C@H](O)CO [2-deoxy-D-glucose]	1.032 U/ml
	17.2%	high effect	high effect	60.6%		O=C[C@H](O)[C@@H](O)[C@@H](O)[C@H](O)CO [Galactose]	0.495 U/ml
	1.6%				22.8%	NC(=O)C[C@H](N)C(=O)O [L-asparagine]	0.044 U/ml
